A short description of this data set: gradient 5% acetonitrile 3 min, to 50% in 2 min, to 85% in 15 min, held 3 min, 100 µL/min. The conditions noted are these: column: Zorbax Extend-C18 2.1 x 50 mm; eluents: water / acetonitrile, 0.1% formic acid. In a few lines:
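A Zorbax Extend-C18 column (2.1 × 50 mm, 1.8 μm) run at 100 μL/min with water and acetonitrile, both containing 0.1% formic acid, separated mixtures of ~100 pure standards. The HPLC was coupled to a quadrupole time-of-flight mass spectrometer operated in positive and negative ionization mode, with dead and dwell volumes of 40 μL and 900 μL. Each retention time was taken from a computationally picked adduct peak that was then manually inspected.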
Regarding `COc1ccc(C(C)NC(=O)C2CCCN(c3cnc4nccnc4c3)C2)cc1OC` (stereo not drawn), the RP-LC retention time was 663 s.
Regarding `Cc1nc(CCNC(=O)NC2CCCCC2)no1`, the RP-LC retention time came to 649 s.
Take `CN(C1CCOCC1)C1CCN(C(=O)c2ccc(Cl)cc2)CC1`: the RP-LC retention time is 589 s.
Turning to `CC(C)N1C(=O)C(C)(C(=O)Nc2ccccc2F)Oc2cccnc21` (stereo not drawn), the RP-LC retention time amounted to 973 s.
`CC1=C(c2ccc(C)cc2)S(=O)(=O)N=C1N1CCCN(C(=O)CC2CCCC2)CC1` came in with an RP-LC retention time of 910 s.
Consider `O=C(NCc1ccccn1)C1=C2CCCN2c2ccc(F)cc2S1(=O)=O`, for which the RP-LC retention time worked out at 1030 s.
Consider `O=C(CSc1nnc2c3cc(-c4ccc(F)cc4)nn3ccn12)Nc1ccccc1Br`, for which the RP-LC retention time came to 935 s.
Regarding `O=C(COc1ccc(Cl)cc1Cl)Nc1nc(-c2ccc(F)cc2)cs1`, the RP-LC retention time was determined as 1250 s.
As to `CSc1cccc(NC(=O)C2CCN(c3cnc4nccnc4c3)CC2)c1`, the RP-LC retention time turned out to be 752 s.
The same measure for `O=C(Cn1nc2c(c1NC(=O)Cc1noc3ccccc13)CSC2)NCC1CCCO1` (stereo not drawn): 853 s; for `O=C(NCCc1csc(-c2cccs2)n1)C1CCN(C(=O)C2CCCC2)CC1`: 782 s; for `CN(Cc1cc(Br)cc(Br)c1N)C1CCCCC1`: 832 s.
In turn, `CCN1CCN(C(=O)C(C)n2c3ccccc3c3cnn(C)c(=O)c32)CC1` (stereo not drawn) returned an RP-LC retention time of 585 s.
`COCC(=O)N1C[C@@H]2CCCN3CCC[C@@H]([C@H]23)[C@H]1CCCC(=O)NCC1CC1` displayed an RP-LC retention time of 566 s.
For the compound `CCn1ccc2cc(S(=O)(=O)N3CCCC(C(=O)NCCCN4CCOCC4)C3)ccc21` (stereo not drawn), the RP-LC retention time was found to be 648 s.
The same measure for `CC(=O)Nc1ccc(C2(C(=O)NCc3cccc(C)c3)CCC2)cc1`: 773 s.
Consider `O=C(Cn1c(=O)c(CCC(=O)NC2CC2)nc2ccccc21)Nc1ccccc1Br`, for which the RP-LC retention time was 712 s.
The same measure for `CSc1ccc(CNC(=O)C2CCCN(c3ccnc(-c4ccc(F)cc4)n3)C2)cc1` (stereo not drawn): 728 s.
The same measure for `COc1cc(NC(=O)Nc2nccn(-c3cc(C)cc(C)c3)c2=O)cc(OC)c1`: 913 s; for `Cn1c(C(=O)NC2CCCCC2)cc2c(-c3cccs3)nn(-c3ccccc3)c21`: 1210 s.
The compound `O=C1NC2(CCN(C(=O)Nc3ccc(Cl)cc3)CC2)N=C1c1cccc(F)c1` registered an RP-LC retention time of 872 s.
Take `Cc1ccc(NC(=O)CSc2nnc(NC(=O)c3cc(C4CC4)on3)s2)cc1Cl`: the RP-LC retention time stood at 926 s.
Consider `CCN(CC)C(=O)c1ccc(-c2nnc3ccc(NC(=O)C4CC4)cn23)cc1`, for which the RP-LC retention time amounted to 699 s.
Compound `Cc1noc(CN2CCN(C3CCN(Cc4cc(F)ccc4F)C3)C2=O)n1` (stereo not drawn) had an RP-LC retention time of 576 s.
Regarding `COCCNCc1ccc(-c2cccc(Cl)c2)o1`, the RP-LC retention time turned out to be 647 s.
For `Cc1ccc(F)cc1NC(=O)c1cc(C(C)C)n2nccc2n1`, the RP-LC retention time was found to be 1230 s.
`CCCC(=O)Nc1nc(-c2ccc3c(c2)N(C)C(=O)C(C)O3)cs1` (stereo not drawn) registered an RP-LC retention time of 831 s.
In turn, `Cc1cccc(-c2ncccc2CNS(=O)(=O)c2ccccc2F)c1` had an RP-LC retention time of 702 s.
`COc1cc(OC)cc(-c2cc3cnc(N)nc3nc2NC(=O)NC(C)(C)C)c1` returned an RP-LC retention time of 814 s.
`CCCN(CCC)CCCNC(=O)C1CCCN(c2ncc(-c3cccc(F)c3)cn2)C1` (stereo not drawn) came in with an RP-LC retention time of 747 s.
The same measure for `O=C(Cc1nnc2cc(-c3nc(C4CC4)no3)ccn12)N1CCSCC1`: 698 s; for `CNc1cccnc1OC1CCN(S(=O)(=O)c2ccc3c(c2)CCC3)C1` (stereo not drawn): 765 s.
Compound `Cn1cnc(S(=O)(=O)N2CCCN(S(=O)(=O)c3cccc4nsnc34)CCNC(=O)CC2c2ccccc2)c1` (stereo not drawn) had an RP-LC retention time of 702 s.
